The values that follow come from patent US20250213701A1, “MEDICAMENT FOR TREATING HUMAN TUMOR BASED ON ERF3A-TARGETING PROTEOLYSIS MECHANISM” (SUZHOU DEGEN BIO-MEDICAL CO., LTD., priority 2022, published 2025).

Assay [1] concerns AR. The experiment in a line: Western blot assay in 22Rv1 cells: AR. In kind it is cell-based, human. The note with it: different concentrations at 24 h, and 3 nM at different time points (FIGS. 7 and 8). The source says:
Example 84: Western Blot Assay of Compound C59 in 22Rv1, PC-3, and HepG2 Cells
(1) Materials: 22Rv1, PC-3, and HepG2 cell, anti-SRD5A1 antibody (ab167606), anti-SRD5A2 antibody (ab124877), anti-SRD5A3 antibody (PA5-107029), anti-androgen receptor (AR) antibody (CST, No. 5153), anti-GSPT1 antibody (Abcam, ab234433), anti-GADPH antibody (CST, No. 5174), anti-c-Myc antibody (CST, No. 8583), anti-α-tublin antibody (CST, No. 2125), anti-rabbit IgG, HRP-linked antibody (CST, No. 7074), electrophoresis device and membrane transfer device (LIUYI, BEIJING; DYCZ-24DN)
Cell seeding: 22Rv1 (Cell Bank of the Chinese Academy of Sciences, TCHu100), PC-3 (Cell Bank of the Chinese Academy of Sciences, SCSP-532) and HepG2 cells (Cell Bank of the Chinese Academy of Sciences, TCHu72) were subcultured and trypsinized to prepare 6×10^5 cells/mL suspensions, seeded on 6-well plates (3 mL/well), and cultured overnight in a cell incubator at 5% CO2 and 37° C. […]
Protein quantification: The protein was quantified using a BCA protein quantification kit. […]
Western immunoblot assay (or Western blot, WB): SDS-PAGE gel at a proper concentration was prepared according to the molecular weight of the target protein: for example, the concentration of the separation gel was 8% and the concentration of the stacking gel was 5%. The loading volume was adjusted according to the protein quantification results. […]

The subject of assay [2] is KATO III cells. The assay is described as follows: Anti-proliferative toxicity of C63 in tumor cell lines (CCK8): KATO III. Type of assay: cell-based. The settings on record: Homo sapiens, 72 h, 3 days, read-out: Inhibition rate. The protocol:
(§1) Example 83: Detection of Anti-Proliferative Toxicity of C63 in Some Tumor Cell Lines
KATOIII cells (purchased from the Cell Bank of the Chinese Academy of Sciences, Cat. No. TCHu229) were subcultured in a culture medium (IMDM medium+1% penicillin-streptomycin dual-antibiotic solution+10% fetal bovine serum) in an incubator at 5% carbon dioxide and 37° C.
KATO III cells were seeded at 8000 cells/well (90 μL) on a 96-well plate and cultured for 24 h.
(§2) 10 mM compound stock solutions were prepared in DMSO.
(§3) The compound stock solution was diluted with DMSO to give DMSO solutions 1-9 at concentrations of 0 μM, 2500 μM, 500 μM, 100 μM, 20 μM, 4 μM, 0.8 μM, 0.16 μM, and 0.032 μM.
(§4) 2 μL of each of solutions 1-9 was added to 98 μL of the medium to give mixed solutions 11-19 of the compound and the medium.
(§5) 10 μL of each of solutions 11-19 was added to the above cell seed solution to give a total volume of 100 μL (90 μL+10 μL).
(§6) The concentrations of the compound in the wells were 0 μM, 5.0 μM, 1.0 μM, 0.2 μM, 0.04 μM, 0.008 μM, 0.0016 μM, 0.00032 μM, and 0.000064 μM. All concentrations were in triplicate.
(§7) After the above-treated cells were cultured for 3 days, 10 μL of the CCK8 solution (DOJINDO, Cat. No. PF725) was added to each well. The plate was incubated in an incubator at 37° C. for 1-4 h and then detected on a microplate reader for the reading at 450 nm.

The subject of assay [3] is NCI-N87 cells. The experiment in a line: Anti-proliferative toxicity of C63 in tumor cell lines (CCK8): NCI-N87. The note with it: Homo sapiens, 72 h, 3 days, read-out: Inhibition rate. In kind it is cell-based. The protocol:
as §1
NCI-N87 cells (purchased from the Cell Bank of the Chinese Academy of Sciences, Cat. No. TCHu130) were subcultured in a culture medium (RPMI-1640 medium+1% penicillin-streptomycin dual-antibiotic solution+10% fetal bovine serum) in an incubator at 5% carbon dioxide and 37° C.
NCI-N87 cells were seeded at 8000 cells/well (90 μL) on a 96-well plate and cultured for 24 h.
as §2, §3, §4, §5, §6, §7

In assay [4] the test system is DLD-1 cells. The experiment in a line: Anti-proliferative toxicity of C63 in tumor cell lines (CCK8): DLD-1. In kind it is cell-based. The note with it: Homo sapiens, 72 h, 3 days, read-out: Inhibition rate. The procedure: as §1
DLD-1 cells (purchased from the Cell Bank of the Chinese Academy of Sciences, Cat. No. TCHu134) were subcultured in a culture medium (RPMI-1640 medium+1% penicillin-streptomycin dual-antibiotic solution+10% fetal bovine serum) in an incubator at 5% carbon dioxide and 37° C.
DLD-1 cells were seeded at 2000 cells/well (90 μL) on a 96-well plate and cultured for 24 h.
as §2, §3, §4, §5, §6, §7

For `C[C@]12C=CC(=O)N[C@@H]1CC[C@@H]1[C@@H]2CC[C@]2(C)[C@@H](C(=O)Nc3cccc(N[C@@H]4CCC[C@@H](Nc5cccc6c5C(=O)N(C5CCC(=O)NC5=O)C6=O)C4)c3)CC[C@@H]12` (stereo partly drawn) [C59, N-(3-(N—(N-(4-(2-(3-(2,6-dioxopiperidine))-isoindole-1,3-dione))-1R,3R-cyclohexanediamine))phenyl)-3-oxo-4-aza-5α-androst-1-ene-17β-carboxamide], in assay [1], the “downregulation of AR protein (Western blot)” value is listed as “downregulation”.
For orientation: inhibition means the relative decrease from the control value, in per cent. As for `C[C@]12C=CC(=O)N[C@@H]1CC[C@@H]1[C@@H]2CC[C@]2(C)[C@@H](C(=O)Nc3cccc(N[C@@H]4CCC[C@@H](Nc5cccc6c5C(=O)N([C@H]5CCC(=O)NC5=O)C6=O)C4)c3)CC[C@@H]12` [C63, N-(3-(N—(N-(4-(2-(3S-(2,6-dioxopiperidine))-isoindole-1,3-dione))-1R,3R-cyclohexanediamine))phenyl)-3-oxo-4-aza-5α-androst-1-ene-17β-carboxamide], the inhibition at 64 pM in assay [2] (0.000064 μM) was 1.09%; in assay [3] (0.000064 μM), 7.79%; in assay [4] (0.000064 μM) it was 0.83%. The results for the inhibition at 0.00032 µM in assay [2] (0.000320 μM), in assay [3] (0.000320 μM) and in assay [4] (0.000320 μM) were 2.17%, 32.7% and 7.21%, respectively. The inhibition at 0.0016 µM is 15.9% in assay [2] (0.001600 μM), 61% in assay [3] (0.001600 μM) and 40.5% in assay [4] (0.001600 μM). Moreover, the inhibition at 0.008 µM in assay [2] (0.008000 μM) stood at 51.5%; in assay [3] (0.008000 μM), 66.7%; in assay [4] (0.008000 μM), 67.5%. The inhibition at 0.04 µM in assay [2] (0.040000 μM) worked out at 67.9%; in assay [3] (0.040000 μM), 64.1%; in assay [4] (0.040000 μM) it was 76.3%. The inhibition at 0.2 µM turned out to be 74.8% in assay [2] (0.200000 μM), 62.5% in assay [3] (0.200000 μM) and 78.3% in assay [4] (0.200000 μM). In addition, the inhibition at 1 µM in assay [2] (1.000000 μM) was 74.7%; in assay [3] (1.000000 μM) it was 64%; in assay [4] (1.000000 μM) it was 79.7%. The inhibition at 5 µM was 72.3% in assay [2] (5.000000 μM), 65.2% in assay [3] (5.000000 μM) and 83.1% in assay [4] (5.000000 μM).
